Here are results for four compounds from US7879792B2, “Synthetic peptide inhibitors of thrombin and thrombin activation of protease activated receptors 1 and 4” (The Regents of the University of Michigan, priority 2005, dated 2011).

Data set [1] is described as follows: stability testing in intestinal perfusate. Format: in vitro ADME. The settings on record: rat, 37° C.; for half-life: intestinal perfusate. How it is done: (§1) Stability testing of the various compounds was performed in buffer, intestinal perfusate, and an intestinal homogenate preparation to assess the potential oral availability of these compounds. Initial studies prepared the tissue for stability studies. The buffer used in stability testing is 10 mM MES (pH 6.5) containing 135 mM NaCl, and 5 mM KCl. To collect intestinal perfusate from rats, male Sprague Dawley rats, 8 to 10 weeks old, weighing 250 to 350 g were fasted 15 to 18 hours with water given ad libitum. Anesthesia was administered by intramuscular injection of pentobarbital/ketamine (40 mg/kg and 80 mg/kg, respectively). The rats were placed on a warming pad under a surgical lamp to maintain body temperature and jejunal intestinal segments were exposed through a midline, abdominal incision. Approximately 20 cm segment of the jejunum (2 to 4 cm distal to the ligament of Treitz) was cannulated and the intestinal segments were perfused with 10 mM MES (pH 6.5) containing 135 mM NaCl, and 5 mM KCl at a flow-rate of 0.5 ml/min at 37° C. using a constant infusion pump (Harvard Apparatus, South Natick, Mass.). The collected perfusate was stored at −80° C. until use for ex vivo stability studies. After collection, the perfused intestinal segments were flushed with ice-cold 0.15 M KCl solution and the animal was euthanized and the jejunal intestinal segment detached. The inner intestinal tissue layers are scraped out and homogenized in MES buffer (pH 6.5) in a ratio of 1 part of intestinal tissue to 5 parts buffer. Total protein content of the perfusate and the homogenate were determined using a Biorad protein assay kit. The intestinal homogenate samples were used immediately or rapidly frozen at −80° C. until stability analysis.
(§2) The actual stability testing protocol is as follows: A 0.1 ml aliquot of the synthetic peptide solution (1 mg/ml) was added to 0.9 ml of MES buffer, pH 6.5, intestinal perfusate, or intestinal homogenate at 37° C. Samples were mixed by vortexing and 100 microliter aliquots were removed over a 60 to 90 minute period for analysis of breakdown products. The 100 microliter sample aliquots were diluted 10 fold with water and subjected to solid phase extraction using a Waters Oasis HLB column. Briefly, the columns were preconditioned by passing 1 ml of MeOH and 1 ml of water over the column, and 1 ml of sample was added to the column. The column was washed with 5% methanol:95% water solution to remove proteins and salts, then eluted with 1 ml of 100% methanol. The methanol was removed by vacuum, and the sample was reconstituted in mobile phase for LC/MS/MS analysis.
(§3) LC/MS/MS analysis was performed on a HP1100 HPLC (Hewlett Packard) interfaced with a Quattro II MS/MS detector (Waters/Micromass). For the HPLC separation, a 10 μL aliquot of sample in a mobile phase consisting of an equal volume mixture of acetonitrile/water containing 0.5% formic acid was injected onto a 150 mm×2.2 mm, 5 μm C8 column (Higgins Analytical Inc) and developed at a flow rate of 0.2 ml/min for 5 minutes. The MS detector was used in single ion recording mode at a cone voltage of 50 Volts.

Data set [2] can be described thus: rat intestinal in situ perfusion permeability. As to conditions: rat. Format: in vivo. How it is done: To determine the intestinal permeability of the various peptide analogs, male albino Sprague-Dawley rats, 9-10 weeks old and weighing 250-350 g were fasted for 18 hours with free access to water. The rats were anesthetized with an intramuscular injection of ketamine/xylazine/butorphanol (87 mg/kg, 6 mg/kg, and 0.2 mg/kg body weight, respectively). The abdomen was opened by a 4-5 cm midline incision and a 10 cm jejunal segment was cannulated on two ends and connected to a syringe pump that pumps the perfusing solution through the cannulated intestine at a constant rate and at a temperature of 37° C. The isolated segment was rinsed with 10 mM MES (pH 6.5) at a flow-rate of 0.5 ml/min in order to clean out any residual debris. Jejunal perfusion was subsequently performed with the same buffer containing 135 mM NaCl, 5 mM KCl and 0.01% PEG 4000 at a flow rate of 0.2 ml/min containing test compound, internal permeability reference standards (e.g., metoprolol) and ^14C-PEG 4000 as a non-absorbable marker for measuring water flux. After steady-state is reached within the perfused intestinal segment, typically 30 minutes after start of perfusion, samples were taken at 10 minute intervals for 1 hour. ^14C (PEG-4000) levels are assayed by scintillation counting and test compounds and internal permeability standard analysis by LC/MS/MS. Samples are frozen and stored at −80° C. until analysis.
The effective permeability (Peff) determined from the in situ perfusion is calculated from equation 1
[formula] where Q is the perfusion buffer flow rate, C′out is the outlet concentration of the compound that has been adjusted for water transport (equation 2) after passing through the intestinal segment, C′in is the inlet or starting concentration of the compound, R is the radius of the intestinal segment (set to 0.2 cm) and L is the length of the intestinal segment. To correct for water transport, a non-absorbed radioactive tracer, ^14C PEG-4000, is included in the perfusion buffer. The Cout/Cin ratio is corrected for water transport according to equation 2:
[formula] where Aout-A0 is equal to the radioactivity counts in the outlet sample minus background (dpm) and Ain-A0 is equal to the radioactivity counts in the inlet sample minus background (dpm).
In certain instances, in addition to perfusing the intestinal segment as described, plasma is drawn through a portal vein cannula to determine the amount of material entering the portal system during the perfusion. This additional experimental step can aid in determining the true intestinal permeability of unstable compounds. After steady state conditions are reached as described above, 0.5 ml aliquots of plasma are withdrawn from the portal vein at regular intervals throughout the experimental time frame. The plasma samples are deproteinated with acetonitrile and the sample is subjected to SPE and LC/MS analysis as described above. From the plasma concentration of compound, the mesenteric permeability can be determined by substitution into equation 3: Flux=A*Pe-mes*Ci 3) where Flux is equal to the portal blood flow (estimated at 1 ml/min in the rat)×the steady state mesenteric blood concentration of the peptide analogs, A is the absorptive area of the intestine (estimated at 12.56 cm^2 in the rat intestine), Pe-mes is the mesenteric Permeability (cm/sec), and Ci is the starting concentration of drug in the perfusate (ug/ml).

Data set [3] can be described thus: stability testing in intestinal homogenate. It is filed as in vitro ADME. The settings on record: rat. As to the method:
as §1, §2, §3

The mark [4] stands for this setting: read-out: t1/2 (min) Intestinal Perfusate.

Read-outs that look alike come from different tables or passages of the source. Where a SMILES comes first, the peptide text is derived from it.

In the case of `N=C(N)NCCC[C@H](N)C(=O)N1CCC[C@H]1C(=O)N1CCC[C@H]1C(=O)O` [RPP, Arg-Pro-Pro, reference compound] (H-Arg-Pro-Pro-OH; C-terminus assumed), the half-life at 0.1 mg/ml in data set [1] (male, Sprague Dawley, intestinal (jejunal) perfusate, pH 6.5, rat, read-out: t1/2 (min) Intestinal Perfusate) is 91.8 min.
For the compound `N=C(N)NCCC[C@@H](N)C(=O)N1[C@H](C(=O)N2CCC[C@H]2C(=O)O)C[C@@H]2CCCC[C@@H]21` [rOicP] (HELM PEPTIDE1{[dR].[O=C([C@@H]1C[C@@H]2CCCC[C@@H]2N1[*:1])[*:2]].P}$$$$V2.0), in data set [1], the “t1/2 (min) Intestinal Perfusate” value is reported as “stable”. For the same compound, the Papp came out at 1.63 ×10⁻⁶ cm/s in data set [2] (from portal vein plasma during perfusion, read-out: Permeability (mesenteric)) and 7.6 ×10⁻⁶ cm/s in data set [2] (rat jejunal in situ perfusion, read-out: Permeability (in situ)). Also, in data set [3] (intestinal homogenate, 37° C., read-out: t1/2 (min) Intestinal Homogenate), the half-life was 935 min. Besides, in data set [3], the “stability in intestinal homogenate (FIG. 12)” value is “most stable”.
For `N=C(N)NCCC[C@@H](N)C(=O)N1[C@H](C(=O)N2CCC[C@H]2C(=O)NCC(=O)N[C@H](C(N)=O)C2Cc3ccccc3C2)C[C@@H]2CCCC[C@@H]21` [rOicPGIdg] (HELM PEPTIDE1{[dR].[O=C([C@@H]1C[C@@H]2CCCC[C@@H]2N1[*:1])[*:2]].P.G.[O=C([C@@H](N[*:1])C1Cc2ccccc2C1)[*:2]].[am]}$$$$V2.0), in data set [1] (setting [4]), the half-life amounted to 56.1 min.
On the same count and under the same terms, next, `N=C(N)NCCC[C@@H](N)C(=O)N1[C@H](C(=O)N2C[C@H](O)C[C@H]2C(=O)NCC(=O)N[C@H](C(N)=O)C2Cc3ccccc3C2)C[C@@H]2CCCC[C@@H]21` [rOicHypGIdg] (HELM PEPTIDE1{[dR].[O=C([C@@H]1C[C@@H]2CCCC[C@@H]2N1[*:1])[*:2]].[Hyp].G.[O=C([C@@H](N[*:1])C1Cc2ccccc2C1)[*:2]].[am]}$$$$V2.0): 205 min.
